The text below walks through data of patent publication US4929602A, “Method of inhibiting platelet dependent arterial thrombosis” (Scripps Clinic and Research Foundation, priority 1988, dated 1990).

Data set [1] has as its system Hemostatic Function. On the set-up: species or system baboon. The following applies: in vivo. As for the experimental part:
After continuous infusion of a | given dose for 15 minutes (min.), the template bleeding time measurement | was begun and blood was drawn for thrombin time determinations. Escalatio | to the next dose was undertaken only after the bleeding time measurement | had been completed. The results are expressed as means ± one standard | deviation.

Data set [2] is described as follows: Template bleeding time and platelet count in carotid endarterectomy study (Example 2B). The class given is in vivo, baboon. The following applies: treated animals, day 3. The procedure:
[…] The mean platelet count was 318±70×10^3 /μl in the control group and 296±53×10^3 /μl in the treated group.
Bleeding time measurements were performed in duplicate on the shaved volar surface of the forearm, using the standard template method as previously described for studies in baboons. Harker et al., Blood, 58:824-834 (1980).

Data set [3] can be described thus: Plasma levels of PPACK (antithrombin activity) in carotid endarterectomy study. The class given is in vivo, baboon. The conditions noted are these: iv.
Data set [4] can be described thus: Blood and plasma determinations during dialyzer exposure (APTT, FPA, fibrinogen, cell counts, bleeding time, PF4, βTG, C3a). The class given is in vivo, baboon. The procedure: PPACK or standard heparin (from porcine intestinal mucosal, Invenex Laboratories, Chagrin Falls, Ohio) was infused into the arterial limb of the vascular shunt immediately proximal to the dialyzer.
Blood cell counts (platelets, white blood cells, and red blood cells) were performed on disodium EDTA anticoagulated whole blood using a J. T. Baker whole blood analyzer Model 810 (Allentown, Pa.). Hanson et al., J. Clin. Invest. 75:1591-99 (1985); and Hanson et al., Arteriosclerosis, 5:595-603 (1985). Standard template bleeding times, were performed on the shave volar surface of the forearm in a manner as described in Harker et al., New. Eng. J. Med., 287:155-59 (1972) and Malpass et al., Blood, 57:736-40 (1981). Bleeding times were done in duplicate and averaged. Commercially available radioimmunometric assays were carried out to measure plasma levels of platelet factor 4 (PF4) (Abbott Laboratories, North Chicago, Ill.), β-thromboglobulin (βTG) (Amersham Corporation, Arlington Heights, Ill.), fibrinopeptide A (FPA) (MICRO USA Inc., New York, N.Y.) and activated complement C3 antigen (C3a) (Amersham Corp.). Blood samples for these plasma assays were collected, processed and determined as described in the procedures of Example 1 and in Malpass et al., ibid. and Hanson et al., Arterosclerosis, 5:595-603 (1985). […] (APTT) were performed using a standard method (Activated PTT reagent, Ortho Diagnostics, Raritain, N.J.). A fibrometer (Fibrosystem, Division of Becton and Dickinson and Co., Cockeysville, […].) was used for endpoint clot detection as described in Biggs, R., Human Blood Coagulation, Haemostasis and Thrombosis, Oxford, Blackwell Scientific, pages 657-750 (1976). Fibrinogen was determined by a total clottable protein method described by Jacobsson K., Scand. J. Clin. Lab. Invest., 7(Suppl. 14):9-54 (1955).

Data set [5] in a line: Plasma activity levels of heparin (anti-Xa) and PPACK (antithrombin) during dialyzer study. The conditions noted are these: for level at 0.5 h / level at 1 h: plasma, 100 nmol/kg per min, Plasma PPACK; for level at 0.5 h: 30 min; for level at 1 h: 60 min. The class given is in vivo, baboon. As for the experimental part:
Samples were centrifuged (2000×g, for 5 min) immediately after collection and the recovered plasma was frozen until assay. […] In some studies PPACK levels were determined at three sites: (i) systemic (ii) immediately proximal to the dialyzer but distal to the site of the PPACK infusion, and (iii) immediately distal to the dialyzer. Levels of heparin activity were determined by measuring the potentiating effect of heparin of plasma anti-Xa activity using a synthetic chromogenic substrate (Stachrom Heparin, Stago, France). Teien et al., Thrombo Research, 10:399-410 (1977).

Data set [6] can be described thus: PPACK concentration in the plasma during infusion (graft study). The class given is in vivo, baboon. The following applies: intravenous infusion at 100 nmol/kg/min (about 15 minutes). An excerpt: Methods for determining the concentration of a Formula (1) peptide in the plasma are well known in the art, a preferred method being that described by Collen et al., J. Lab. Clin. Med., 99:76-83 (1982), whose disclosures are incorporated herein by reference.

The conditions of data set [7]: Collen et al., cited from earlier work.
In data set [8] the test system is primate model of vascular graft thrombosis. The conditions noted are these: aspirin 32.5 mg/kg/day orally 2 hours prior to graft placement; previous studies; cited from earlier work.

For `N=C(N)NCCC[C@H](NC(=O)[C@@H]1CCCN1C(=O)[C@H](N)Cc1ccccc1)C(=O)CCl` [PPACK, D-phenylalanyl-L-propyl-L-arginyl-chloromethyl ketone], the “effect on heart rate or blood pressure” value in data set [1] is listed as “No effect”. In addition, the results for the platelet count in data set [1] and in data set [4] (during dialyzer exposure) were 269 ± 54 × 10^9 /L and 401 ± 17 × 10^3 /μL, respectively. Besides, the Platelet counts in data set [2] is on record as 296±53 ×10^3 /μl. This compound gave a level at 1.5 h in data set [3] (100 nmol/kg/min, 90 min after infusion) of 1120 ± 270 ng/mL. Also, the level at 0.5 h in data set [3] (30 min after infusion, 100 nmol/kg/min for about 1 hour) was 3720 ± 610 ng/mL; in data set [5] (Postdialyzer), 3900 ± 500 ng/mL; in data set [5] (Predialyzer), 3050 ± 550 ng/mL; in data set [5] (Systemic) it was 1400 ± 400 ng/mL. Also, the C3a peak level in data set [4] (during dialyzer use) came out at 1989 ± 360 ng/mL. Further, the “white blood cell count, early fall” value in data set [4] (during dialyzer use) was 5,900±810 cells/ul. Moreover, the “PPACK systemic plasma level” value in data set [5] (100 nmol/kg per min infused proximal to the dialyzer) was found to be 1.5 ± 0.06 µg/mL. Also, the level at 1 h in data set [5] (Postdialyzer) worked out at 4100 ± 1200 ng/mL; in data set [5] (Predialyzer) it was 3650 ± 650 ng/mL; in data set [5] (Systemic), 1600 ± 500 ng/mL. Besides, the “PPACK concentration in the plasma” value in data set [6] was 1 to 2 µg/mL. The “T50 removal rate from the circulation” value in data set [7] is given as “less than 3 min”. Moreover, the “half-life of PPACK's ability to inhibit fibrin formation” value in data set [7] (rabbits) is reported as “about 2.9 minutes”.

As to `CC(=O)Oc1ccccc1C(=O)O` [aspirin], the “effect on vascular graft 111In-platelet deposition” value in data set [8] is “neither aspirin (32.5 mg/kg/day given orally 2 hours prior to graft placement) not aspirin combined with heparin (100 units/kg) affected”.
